Like-named read-outs stand apart in the source and are kept apart here.
Legend:
[1] = test system: Ba/F3-EpoR-JAK2V617F cells; experiment: Ba/F3-EpoR-JAK2V617F-driven malignant tumor mouse model; assay type: in vivo, Babl/c-nude mice; conditions: oral twice a day
Method: Babl/c-nude mice (Beijing Huafukang Biotechnology Co., Ltd.) were received and acclimated to the environment until these mice were normalized in diet and activity, and the modeling began. Ba/F3-EpoR-JAK2V617F cells (State Key Laboratory of Biotherapy, Sichuan University) were routinely incubated and grew to 80% fusion degree. Then the cells were centrifuged at 1000 rpm for 3 min., collected, resuspended by PBS and counted by a cell counter; while the survival rate of the cells was calculated. Only when the proportion of living cells exceeds 90%, can the cells be used in the experiment, with the cell concentration adjusted to 1×10^7 cells/mL. After the cells were collected, the cell suspension was pre-cooled on ice. Each mouse was inoculated as per 1.0×10^6, and batch induction modeling was carried out.

JAK2V617F = experiment: JAK2V617F-induced myelofibrosis mouse model; assay type: in vivo, BALB/c mice; conditions: 30 mg/Kg, oral twice a day, after 8 weeks of treatment
Description: JAK2 mutant JAK2V617F gene vector MSCV-JAK2V617F-GFP (Chengdu Wandao Biotechnology Development Co., Ltd.) and BALB/c mice (Jiangsu Jicui Yaokang Biotechnology Co., Ltd.) were provided as donors. The mouse bone marrow cells were sampled and infected with JAK2V617F virus, and the infected cells were reinfused into BALB/c recipient mice irradiated by X-rays through tail vein. Then, the JAK2V617F-positive myelofibrosis mouse model was induced. […] The administration route was oral administration twice a day, and the mice in the blank control group and the model group took the same volume of normal saline orally. […] Therefore, modifications or improvements made without departing from the spirit of the present invention are within the scope of protection of the present invention.

MV4-11 cells = assay type: in vivo; conditions: for Tumor inhibition rate (%): MV4-11 model, oral, QD × 6
Method: (§1) MV4-11 cells and SET-2 cells were used to establish a mouse xenograft model to investigate the efficacy. NOD/SCID immunocompromised mice (purchased from Beijing Huafukang Biotechnology Co., Ltd.) were received and acclimated to the environment until they were normalized in diet and activity. MV4-11 and SET-2 cells were routinely incubated and grew to 80% fusion degree. Then, the cells were collected and counted on a blood cell counting plate, with the cell concentration adjusted to 3×10^7 cells/mL. After the cells were collected, 100 μL of cell suspension was inoculated subcutaneously on the back of mice. When the tumor volume reached 100 mm^3, the drug administration was started. The dosage regimen was oral administration every day. […].

SET-2 cells = assay type: in vivo; conditions: for Tumor inhibition rate (%): SET-2 model, oral
Method: as §1

FLT3 = molecular target: T1, FLT3 (Homo sapiens, UniProt P36888); experiment: In vitro kinase activity experiment, FLT3; assay type: biochemical
T1 construct: purchased Eurofins
T1 sequence (P36888 27-993): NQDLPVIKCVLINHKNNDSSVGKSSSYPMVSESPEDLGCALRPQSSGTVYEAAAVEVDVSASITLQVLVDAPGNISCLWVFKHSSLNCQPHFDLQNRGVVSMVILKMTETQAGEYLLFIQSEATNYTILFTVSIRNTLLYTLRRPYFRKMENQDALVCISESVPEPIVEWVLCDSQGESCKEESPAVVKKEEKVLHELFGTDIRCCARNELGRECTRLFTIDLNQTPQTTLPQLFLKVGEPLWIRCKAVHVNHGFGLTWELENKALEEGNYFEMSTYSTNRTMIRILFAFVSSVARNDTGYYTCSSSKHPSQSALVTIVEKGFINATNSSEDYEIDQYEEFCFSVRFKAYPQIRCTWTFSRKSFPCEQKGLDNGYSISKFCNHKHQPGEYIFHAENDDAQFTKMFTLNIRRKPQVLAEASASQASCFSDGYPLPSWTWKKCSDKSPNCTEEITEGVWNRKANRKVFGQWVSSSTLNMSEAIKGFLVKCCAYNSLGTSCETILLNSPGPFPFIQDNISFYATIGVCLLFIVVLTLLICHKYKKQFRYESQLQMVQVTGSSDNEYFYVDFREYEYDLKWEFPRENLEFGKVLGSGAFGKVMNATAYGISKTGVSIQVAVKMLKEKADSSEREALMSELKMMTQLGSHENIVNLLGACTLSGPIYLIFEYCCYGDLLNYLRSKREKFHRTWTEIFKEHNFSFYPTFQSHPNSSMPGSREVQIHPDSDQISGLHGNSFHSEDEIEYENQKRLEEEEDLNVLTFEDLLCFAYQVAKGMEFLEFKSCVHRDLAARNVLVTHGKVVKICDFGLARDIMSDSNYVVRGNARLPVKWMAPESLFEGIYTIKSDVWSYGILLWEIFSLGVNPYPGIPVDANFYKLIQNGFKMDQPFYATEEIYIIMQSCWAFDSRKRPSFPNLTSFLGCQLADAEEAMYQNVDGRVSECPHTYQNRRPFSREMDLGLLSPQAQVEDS
Summary of the method: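 Reactions began on MgATP addition after the kinase, substrate, γ33P-ATP, 10 mM magnesium acetate and compound series were mixed in MOPS buffer pH 7.0 with EDTA and MnCl2. After 40 min at room temperature, phosphate quench, filter-mat capture and washing, incorporated 33P was measured by scintillation counting.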

Cc1cnc(Nc2ccc(N3CCC(N(C)CCO)CC3)c(F)c2)nc1-c1cnn(C(C)C)c1 [CLJ-44, 5-methyl-N-(3-fluoro-4-(4-N-hydroxyethyl-4-N-methylaminopiperidine-1-yl)phenyl)-4-(1-isopropyl-1H-pyrazole-4-yl) pyrimidine-2-amine]
inhibition of spleen growth ([1]; 7.5 mg/Kg): 18.74%
inhibition of spleen growth ([1]; 15 mg/Kg): 35.67%
inhibition of spleen growth ([1]; 30 mg/Kg): 79.79%
inhibition of spleen growth ([1]; 45 mg/Kg): 101.08%
spleen weight ([1]; 45 mg/Kg): restored to the weight of a normal mouse
inhibition of growth rate of spleen (JAK2V617F): 96.73%
Tumor inhibition rate (%) (MV4-11 cells; 30 mg/kg): 58%
Tumor inhibition rate (%) (MV4-11 cells; 60 mg/kg): 93%
tolerability, effect on body weight (MV4-11 cells; mouse, in vivo): well tolerated and has no adverse effect on body weight
Tumor inhibition rate (%) (SET-2 cells; 30 mg/kg): 66%
Tumor inhibition rate (%) (SET-2 cells; 60 mg/kg): 85%
tolerability, effect on body weight (SET-2 cells; mouse, in vivo): well tolerated and has no adverse effect on body weight
IC50 (FLT3): 4 nM
inhibition at 0.5 µM (FLT3; 40 min, read-out: Kinase activity @ 500 nM (%) FLT3): 99%

Reference: patent US12428394B2, “2,4-disubstituted pyrimidine derivative, preparation method therefor and use thereof” (CHENGDU ZENITAR BIOMEDICAL TECHNOLOGY CO., LTD., priority 2019, dated 2025)
